Earlier results in patent publication US20260293888A1, “METHODS OF TREATING MOLD” (priority 2023, published 2026).

**Q.** Which flash point (TEG alone) does the source give for `OCCOCCOCCO` [Triethylene glycol, triethylene glycol] here?
**A.** 157 °C

**Q.** What about the boiling point (at a pressure of 101.325 kPa) of the same compound?
**A.** 286.5 °C

**Q.** What about the vapor pressure (compared to water) of the same compound?
**A.** relative low vapor pressure compared to water

**Q.** And the miscibility with water (water)?
**A.** miscible with water
